Results as given in ChEMBL document CHEMBL4613296 (ACS Med Chem Lett, 2020).
Calls of active or inactive are those of the source. No cut-off for these calls is given here.

Legend:
[1] = molecular target: Rhodesain (Trypanosoma brucei rhodesiense) (UniProt Q95PM0); assay: Inhibition of Trypanosoma brucei rhodesain using increasing concentration of Cbz-Phe-Arg-AMC as substrate incubated for 30 mins by fluorometric assay
[2] = system: Trypanosoma brucei brucei; assay: Antitrypanosomal activity against blood stage form of Trypanosoma brucei brucei 449 incubated for 24 hrs by ATPlite assay; assay type: functional, organism-based; conditions: Trypanosoma brucei, 449, 24 h
Rhodesain = Rhodesain (Trypanosoma brucei rhodesiense, UniProt Q95PM0); assay: Inhibition of Trypanosoma brucei rhodesain in presence of curcumin using Cbz-Phe-Arg-AMC as substrate incubated for 30 mins by fluorometric assay
[3] = molecular target: Rhodesain (Trypanosoma brucei rhodesiense) (UniProt Q95PM0); assay: Inhibition of Trypanosoma brucei rhodesain assessed as combinational index measured at fraction affected value of 0.60 in presence of curcumin using Cbz-Phe-Arg-AMC as substrate incubated for 30 mins by fluorescence based assay
[4] = molecular target: Rhodesain (Trypanosoma brucei rhodesiense) (UniProt Q95PM0); assay: Inhibition of Trypanosoma brucei rhodesain assessed as combinational index measured at fraction affected value of 0.99 in presence of curcumin using Cbz-Phe-Arg-AMC as substrate incubated for 30 mins by fluorescence based assay
[5] = molecular target: Rhodesain (Trypanosoma brucei rhodesiense) (UniProt Q95PM0); assay: Inhibition of Trypanosoma brucei rhodesain assessed as combinational index measured at fraction affected value of 0.80 in presence of curcumin using Cbz-Phe-Arg-AMC as substrate incubated for 30 mins by fluorescence based assay
[6] = molecular target: Rhodesain (Trypanosoma brucei rhodesiense) (UniProt Q95PM0); assay: Inhibition of Trypanosoma brucei rhodesain assessed as combinational index measured at fraction affected value of 0.90 in presence of curcumin using Cbz-Phe-Arg-AMC as substrate incubated for 30 mins by fluorescence based assay
[7] = molecular target: Rhodesain (Trypanosoma brucei rhodesiense) (UniProt Q95PM0); assay: Inhibition of Trypanosoma brucei rhodesain assessed as combinational index measured at fraction affected value of 0.40 in presence of curcumin using Cbz-Phe-Arg-AMC as substrate incubated for 30 mins by fluorescence based assay
[8] = molecular target: Rhodesain (Trypanosoma brucei rhodesiense) (UniProt Q95PM0); assay: Inhibition of Trypanosoma brucei rhodesain assessed as combinational index measured at fraction affected value of 0.30 in presence of curcumin using Cbz-Phe-Arg-AMC as substrate incubated for 30 mins by fluorescence based assay
[9] = molecular target: Rhodesain (Trypanosoma brucei rhodesiense) (UniProt Q95PM0); assay: Inhibition of Trypanosoma brucei rhodesain assessed as combinational index measured at fraction affected value of 0.50 in presence of curcumin using Cbz-Phe-Arg-AMC as substrate incubated for 30 mins by fluorescence based assay
[10] = molecular target: Rhodesain (Trypanosoma brucei rhodesiense) (UniProt Q95PM0); assay: Inhibition of Trypanosoma brucei rhodesain assessed as combinational index measured at fraction affected value of 0.70 in presence of curcumin using Cbz-Phe-Arg-AMC as substrate incubated for 30 mins by fluorescence based assay
[11] = molecular target: Rhodesain (Trypanosoma brucei rhodesiense) (UniProt Q95PM0); assay: Inhibition of Trypanosoma brucei rhodesain assessed as combinational index measured at fraction affected value of 0.10 in presence of curcumin using Cbz-Phe-Arg-AMC as substrate incubated for 30 mins by fluorescence based assay
[12] = system: Trypanosoma brucei brucei; assay: Antitrypanosomal activity against blood stage form of Trypanosoma brucei brucei 449 in presence of curcumin incubated for 24 hrs by ATPlite assay; assay type: functional, organism-based; conditions: Trypanosoma brucei, 449, 24 h
[13] = molecular target: Rhodesain (Trypanosoma brucei rhodesiense) (UniProt Q95PM0); assay: Inhibition of Trypanosoma brucei rhodesain assessed as combinational index measured at fraction affected value of 0.20 in presence of curcumin using Cbz-Phe-Arg-AMC as substrate incubated for 30 mins by fluorescence based assay

Chain of Rhodesain (Trypanosoma brucei rhodesiense) (Q95PM0 1-450): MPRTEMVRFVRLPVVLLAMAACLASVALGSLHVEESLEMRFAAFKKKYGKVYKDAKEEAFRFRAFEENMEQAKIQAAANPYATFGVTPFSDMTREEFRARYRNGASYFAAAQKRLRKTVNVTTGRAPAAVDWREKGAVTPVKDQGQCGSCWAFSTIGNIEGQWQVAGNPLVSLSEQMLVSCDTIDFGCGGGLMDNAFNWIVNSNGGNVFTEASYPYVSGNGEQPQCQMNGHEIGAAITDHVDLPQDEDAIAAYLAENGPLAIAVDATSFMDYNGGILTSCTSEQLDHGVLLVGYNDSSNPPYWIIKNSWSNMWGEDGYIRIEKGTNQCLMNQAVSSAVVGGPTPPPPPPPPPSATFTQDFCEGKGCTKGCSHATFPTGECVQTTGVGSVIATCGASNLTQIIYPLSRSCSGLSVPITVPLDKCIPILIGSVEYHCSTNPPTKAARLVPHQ
Chain of Rhodesain (Q95PM0 whole entry): as the sequence (Q95PM0 1-450) above

Row | SMILES | inhibition [1] | IC50 [2] [µM] | IC50 (Rhodesain) [µM] | CI [3] | CI [4] | CI [5] | CI [6] | CI [7] | CI [8] | CI [9] | CI [10] | CI [11] | IC50 [12] [µM] | CI [13]
1 | COc1cc(/C=C/C(=O)CC(=O)/C=C/c2ccc(O)c(OC)c2)ccc1O [CURCUMIN] | inactive | 3.12 |  |  |  |  |  |  |  |  |  |  |  | 
2 | CC(=O)/C=C/[C@H](CCc1ccccc1)NC(=O)[C@H](Cc1ccccc1)NC(=O)OCc1ccccc1 | Active | 2.33 | 3.05 | 0.886 | 0.453 | 0.768 | 0.686 | 1 | 1.07 | 0.941 | 0.83 | 1.32 | 4.64 | 1.16
